According to EP0908457B1, “3-(1,2-benzisothiazol- and isoxazol-5-Y1)-2,4(1H,3H)-pyrimidinedione or thione and 3-(1,2-benzisothiazol- and isoxazol-5-y1)-4(3H)-pyrimidinone or thione herbicidal agents” (BASF AKTIENGESELLSCHAFT, priority 1997, dated 1999):

What was measured:
[1] = system: Monochoria vaginalis, Presl.; assay: Preemergence weed control under flooded paddy conditions, MOOVA (Monochoria); assay type: in vivo; details: preemergence, flooded paddy, rated three to four weeks after treatment
Sagittaria pygmaea, L. = assay: Preemergence weed control under flooded paddy conditions, SAGPY (Arrowhead (Pygmaea)); assay type: in vivo; details: preemergence, flooded paddy, rated three to four weeks after treatment
[2] = system: Oryza sativa, (L.) Tebonnet; assay: Rice tolerance to post-transplant applications under flooded paddy conditions (Example 187), ORYSAT (Rice, Tebonnet); details: rated three to four weeks after treatment
[3] = system: Echinochloa oryzoides (Ard.) Fritsch.; assay: Preemergence weed control under flooded paddy conditions, ECHORC (Watergrass (Calif.)); assay type: in vivo; details: preemergence, flooded paddy, rated three to four weeks after treatment
[4] = system: Cyperus serotinus, Rottb.; assay: Preemergence weed control under flooded paddy conditions, CYPSE (Flatsedge); assay type: in vivo; details: preemergence, rated three to four weeks after treatment
Cyperus iria = assay: Preemergence weed control under flooded paddy conditions, CYPIR (Rice Flatsedge); assay type: in vivo; details: preemergence, flooded paddy, rated three to four weeks after treatment
Note: meaning of each grade not given here.

Row | SMILES | herbicidal effect rating, MOOVA ([1]; Rate 0.0320 kg/ha) | herbicidal effect rating, MOOVA ([1]; Rate 0.0620 kg/ha) | herbicidal effect rating, MOOVA ([1]; Rate 0.1250 kg/ha) | herbicidal effect rating, MOOVA ([1]; Rate 0.2500 kg/ha) | herbicidal effect rating, SAGPY (Sagittaria pygmaea, L.; Rate 0.0320 kg/ha) | herbicidal effect rating, SAGPY (Sagittaria pygmaea, L.; Rate 0.0620 kg/ha) | herbicidal effect rating, SAGPY (Sagittaria pygmaea, L.; Rate 0.1250 kg/ha) | herbicidal effect rating, SAGPY (Sagittaria pygmaea, L.; Rate 0.2500 kg/ha) | herbicidal effect rating ORYSAT ([2]; Rate 0.0320 kg/ha) | herbicidal effect rating ORYSAT ([2]; Rate 0.0620 kg/ha) | herbicidal effect rating ORYSAT ([2]; Rate 0.1250 kg/ha) | herbicidal effect rating ORYSAT ([2]; Rate 0.2500 kg/ha) | herbicidal effect rating, ECHORC ([3]; Rate 0.0320 kg/ha) | herbicidal effect rating, ECHORC ([3]; Rate 0.0620 kg/ha) | herbicidal effect rating, ECHORC ([3]; Rate 0.1250 kg/ha) | herbicidal effect rating, ECHORC ([3]; Rate 0.2500 kg/ha) | herbicidal effect rating, CYPSE ([4]; Rate 0.0320 kg/ha) | herbicidal effect rating, CYPSE ([4]; Rate 0.0620 kg/ha) | herbicidal effect rating, CYPSE ([4]; Rate 0.1250 kg/ha) | herbicidal effect rating, CYPSE ([4]; Rate 0.2500 kg/ha) | further results
1 | Cc1ccc(OC(C)C(=O)NS(C)(=O)=O)c(-c2nsc3ccc(-n4c(=O)cc(C(F)(F)F)n(C)c4=O)cc23)c1 (stereo not drawn) [Example 572, Propionamide, 2-{{2-{5-[3,6-dihydro-3-methyl-2,6-dioxo-4-(trifluoromethyl)-1(2H)-pyrimidinyl)-1,2-benzisothiazol-3-yl}-p-tolyl}oxy}-N-(methylsulfonyl)-] | 0.0 | 6.0 | 6.0 | 9.0 | 0.0 | 0.0 | 0.0 | 3.0 | 0.0 | 1.0 | 3.0 | 6.0 | 0.0 | 0.0 | 2.0 | 6.0 | 0.0 | 0.0 | 0.0 | 2.0 | herbicidal effect rating, CYPIR (Cyperus iria; Rate 0.0320 kg/ha): 0.0; herbicidal effect rating, CYPIR (Cyperus iria; Rate 0.0620 kg/ha): 0.0; herbicidal effect rating, CYPIR (Cyperus iria; Rate 0.1250 kg/ha): 2.0; herbicidal effect rating, CYPIR (Cyperus iria; Rate 0.2500 kg/ha): 5.0
2 | CCCCS(=O)(=O)NC(=O)COc1ccc(C)cc1-c1nsc2ccc(-n3c(=O)cc(C(F)(F)F)n(C)c3=O)cc12 [Example 573, Acetamide, N-(butylsulfonyl)-2-{{2-{5-[3,6-dihydro-3-methyl-2,6-dioxo-4-(trifluoromethyl)-1(2H)-pyrimidinyl]-1,2-benzisothiazol-3-yl}-p-tolyl}oxy}-] | 9.0 | 9.0 | 9.0 | 9.0 | 0.0 | 0.0 | 0.0 | 2.0 | 0.0 | 0.0 | 0.0 | 1.0 | 6.0 | 7.0 | 7.0 | 7.0 | 0.0 | 0.0 | 0.0 | 4.0 | herbicidal effect rating, CYPIR (Cyperus iria; Rate 0.0320 kg/ha): 0.0; herbicidal effect rating, CYPIR (Cyperus iria; Rate 0.0620 kg/ha): 3.0; herbicidal effect rating, CYPIR (Cyperus iria; Rate 0.1250 kg/ha): 5.0; herbicidal effect rating, CYPIR (Cyperus iria; Rate 0.2500 kg/ha): 5.0
3 | CCCCS(=O)(=O)NC(=O)COc1ccccc1-c1nsc2ccc(-n3c(=O)cc(C(F)(F)F)n(C)c3=O)cc12 [Example 574, Acetamide, N-(butylsulfonyl)-2-{o-{5-[3,6-dihydro-3-methyl-2,6-dioxo-4-(trifluoromethyl)-1(2H)-pyrimidinyl]-1,2-benzisothiazol-3-yl}-phenoxy}-] | 9.0 | 9.0 | 9.0 | 9.0 | 0.0 | 1.0 | 2.0 | 6.0 | 3.0 | 4.5 | 6.5 | 8.0 | 4.0 | 6.5 | 8.5 | 9.0 | 0.0 | 2.0 | 4.5 | 6.5 | herbicidal effect rating, CYPIR (Cyperus iria; Rate 0.0320 kg/ha): 2.0; herbicidal effect rating, CYPIR (Cyperus iria; Rate 0.0620 kg/ha): 5.5; herbicidal effect rating, CYPIR (Cyperus iria; Rate 0.1250 kg/ha): 6.0; herbicidal effect rating, CYPIR (Cyperus iria; Rate 0.2500 kg/ha): 7.0
4 | CCCCS(=O)(=O)NC(=O)C(C)Oc1ccc(C)cc1-c1nsc2ccc(-n3c(=O)cc(C(F)(F)F)n(C)c3=O)cc12 (stereo not drawn) [Example 575, Propionamide, N-(butylsulfonyl)-2-{{2-{5-[3,6-dihydro-3-methyl-2,6-dioxo-4-(trifluoromethyl)-1(2H)-pyrimidinyl]-1,2-benzisothiazol-3-yl}-p-tolyl}oxy}-] | 4.0 | 4.0 | 9.0 | 9.0 | 0.0 | 0.0 | 0.0 | 3.0 | 0.0 | 0.0 | 0.0 | 2.0 | 2.0 | 5.0 | 6.0 | 9.0 | 0.0 | 0.0 | 0.0 | 2.0 | herbicidal effect rating, CYPIR (Cyperus iria; Rate 0.0320 kg/ha): 0.0; herbicidal effect rating, CYPIR (Cyperus iria; Rate 0.0620 kg/ha): 0.0; herbicidal effect rating, CYPIR (Cyperus iria; Rate 0.1250 kg/ha): 4.0; herbicidal effect rating, CYPIR (Cyperus iria; Rate 0.2500 kg/ha): 6.0
5 | Cc1ccc(OC(C)(C)C(=O)NS(C)(=O)=O)c(-c2nsc3ccc(-n4c(=O)cc(C(F)(F)F)n(C)c4=O)cc23)c1 [Example 576, Propionamide, 2-{{2-{5-[3,6-dihydro-3-methyl-2,6-dioxo-4-(trifluoromethyl)-1(2H)-pyrimidinyl]-1,2-benzisothiazol-3-yl}-p-tolyl}oxy}-2-methyl-N-(methylsulfonyl)-] | 7.0 | 9.0 | 9.0 | 9.0 | 0.0 | 0.0 | 3.0 | 4.0 | 4.0 | 7.0 | 7.0 | 9.0 | 6.0 | 7.0 | 7.0 | 9.0 | 0.0 | 0.0 | 0.0 | 4.0 | herbicidal effect rating, CYPIR (Cyperus iria; Rate 0.0320 kg/ha): 0.0; herbicidal effect rating, CYPIR (Cyperus iria; Rate 0.0620 kg/ha): 3.0; herbicidal effect rating, CYPIR (Cyperus iria; Rate 0.1250 kg/ha): 3.0; herbicidal effect rating, CYPIR (Cyperus iria; Rate 0.2500 kg/ha): 5.0
6 | Cn1c(C(F)(F)F)cc(=O)n(-c2ccc3snc(C(=O)NCC(=O)O)c3c2)c1=O [Example 579, Glycine, N-{{5-[3,6-dihydro-3-methyl-2,6-dioxo-4-(trifluoromethyl)-1(2H)-pyrimidinyl]-1,2-benzisothiazol-3-yl}carbonyl}-] | 6.0 | 7.0 | 7.0 | 9.0 | 0.0 | 0.0 | 0.0 | 2.0 | 0.0 | 2.0 | 3.0 | 3.0 | 2.0 | 4.0 | 4.0 | 5.0 | 0.0 | 0.0 | 0.0 | 0.0 | herbicidal effect rating, CYPIR (Cyperus iria; Rate 0.0320 kg/ha): 0.0; herbicidal effect rating, CYPIR (Cyperus iria; Rate 0.0620 kg/ha): 0.0; herbicidal effect rating, CYPIR (Cyperus iria; Rate 0.1250 kg/ha): 4.0; herbicidal effect rating, CYPIR (Cyperus iria; Rate 0.2500 kg/ha): 6.0
7 | C=CCC(C#N)(CC=C)c1nsc2ccc(-n3c(=O)cc(C(F)(F)F)n(C)c3=O)cc12 [Example 580, 1,2-Benzisothiazole-3-acetonitrile, alpha,alpha-diallyl-5-[3,6-dihydro-3-methyl-2,6-dioxo-4-(trifluoromethyl)-1(2H)-pyrimidinyl]-] | 4.5 | 9.0 | 9.0 | 9.0 | 5.5 | 8.0 | 8.0 | 8.5 | 1.5 | 4.0 | 4.0 | 6.5 | 8.5 | 9.0 | 9.0 | 9.0 | 5.5 | 9.0 | 9.0 | 8.5 | herbicidal effect rating, CYPIR (Cyperus iria; Rate 0.0320 kg/ha): 3.0; herbicidal effect rating, CYPIR (Cyperus iria; Rate 0.0620 kg/ha): 9.0; herbicidal effect rating, CYPIR (Cyperus iria; Rate 0.1250 kg/ha): 9.0; herbicidal effect rating, CYPIR (Cyperus iria; Rate 0.2500 kg/ha): 9.0
